Results from US9120805B2, “Substituted pyrrolo[1,2-A]pyrazin-1-ones and pyrazolo[1,5-A]pyrazin-4-ones as inhibitors of tankyrase and poly(ADP-ribose)polymerase activity” (Merck Patent GmbH, priority 2012, dated 2015).

How the values were obtained:
[1] = biological target: T1, GST-tagged Tankyrase-2 (873-1166 aa) (Homo sapiens, UniProt Q9H2K2); test: Tankyrase 2 autoparsylation assay (HTRF enzyme assay); type: biochemical
T1 construct: GST-tagged Tankyrase-2 (873-1166 aa)
Experimental: (§1) Biochemical Activity Testing of Tankyrase 1 and 2: Autoparsylation Assay
(§2) The autoparsylation assay is run in two steps: the enzymatic reaction in which GST-tagged Tankyrase-1, resp Tankyrase-2 transferred biotinylated ADP-ribose to itself from biotinylated NAD as co-substrate and the detection reaction where a time resolved FRET between cryptate labelled anti-GST bound to the GST tag of the enzyme and Xlent® labelled-streptavidin bound the biotin-parsylation residue is analysed. The autoparsylation activity was detectable directly via the increase in HTRF signal.
(§3) The autoparsylation assay is performed as 384-well HTRF® (Cisbio, Codolet, France) assay format in Greiner low volume nb 384-well microtiter plates and is used for high throughput screen. 250 nM GST-tagged Tankyrase-1 (1023-1327 aa), respectively about 250 nM GST-tagged Tankyrase-2 (873-1166 aa) and 5 μM bio-NAD (Biolog, Life science Inst., Bremen, Germany) as co-substrate are incubated in a total volume of 5 μl (50 mM HEPES, 4 mM Mg-chloride, 0.05% Pluronic F-68, 1.4 mM DTT, 0.5% DMSO, pH 7.7) in the absence or presence of the test compound (10 dilution concentrations) for 90 min at 30° C. The reaction is stopped by the addition of 1 μl 50 mM EDTA solution. 2 μl of the detection solution (1.6 μM SA-Xlent® (Cisbio, Codolet, France), 7.4 nM Anti-GST-K® (Eu-labelled anti-GST, Cisbio, Codolet, France) in 50 mM HEPES, 800 mM KF, 0.1% BSA, 20 mM EDTA, 0.1% CHAPS, pH 7.0) are added. After 1 h incubation at room temperature the HTRF is measured with an Envision multimode reader (Perkin Elmer LAS Germany GmbH) at excitation wavelength 340 nm (laser mode) and emission wavelengths 615 nm and 665 nm. The ratio of the emission signals is determined. The full value used is the inhibitor-free reaction. The pharmacological zero value used is XAV-939 (Tocris) in a final concentration of 5 μM. The inhibitory values (IC50) are determined using either the program Symyx Assay Explorer® or Condosseo® from GeneData.

[2] = biological target: T2, GST-tagged Tankyrase-1 (1023-1327 aa) (Homo sapiens, UniProt O95271); test: Tankyrase 1 autoparsylation assay (HTRF enzyme assay); type: biochemical
T2 construct: GST-tagged Tankyrase-1 (1023-1327 aa)
Experimental: as §1, §2, §3

His-tagged Parp-1 = biological target: T3, His-tagged Parp-1 (Homo sapiens, UniProt P09874); test: PARP-1 autoparsylation assay (HTRF); type: biochemical; conditions: PARP-1 autoparsylation HTRF assay
T3 construct: purchased Enzo Life Sciences GmbH
Text: Description of the PARP1 Assay
Biochemical Activity Testing of PARP-1: Autoparsylation Assay
The autoparsylation assay is run in two steps: the enzymatic reaction in which
His-tagged Parp-1 transfers biotinylated ADP-ribose/ADP-ribose to itself from biotinylated NAD/NAD as co-substrate and the detection reaction where a time resolved FRET between cryptate labelled anti-His antibody bound to the His tag of the enzyme and Xlent® labelled-streptavidin bound the biotin-parsylation residue is analysed. The autoparsylation activity is detectable directly via the increase in HTRF signal.
The autoparsylation assay is performed as 384-well HTRF® (Cisbio, Codolet, France) assay format in Greiner low volume nb 384-well microtiter plates. 35 nM His-tagged Parp-1 (human, recombinant, Enzo Life Sciences GmbH, Lörrach, Germany) and a mixture of 125 nM bio-NAD (Biolog, Life science Inst., Bremen, Germany) and 800 nM NAD as co-substrate are incubated in a total volume of 6 μl (100 mM Tris/HCl, 4 mM Mg-chloride, 0.01% IGEPAL® CA630, 1 mM DTT, 0.5% DMSO, pH 8, 13 ng/μl activated DNA (BPS Bioscience, San Diego, US)) in the absence or presence of the test compound (10 dilution concentrations) for 150 min at 23° C. The reaction is stopped by the addition of 4 μl of the Stop/detection solution (70 nM SA-Xlent® (Cisbio, Codolet, France), 2.5 nM Anti-His-K® (Eu-labelled anti-His, Cisbio, Codolet, France) in 50 mM HEPES, 400 mM KF, 0.1% BSA, 20 mM EDTA, pH 7.0). After 1 h incubation at room temperature the HTRF is measured with an Envision multimode reader (Perkin Elmer LAS Germany GmbH) at excitation wavelength 340 nm (laser mode) and emission wavelengths 615 nm and 665 nm. The ratio of the emission signals is determined. The full value used is the inhibitor-free reaction. The pharmacological zero value used is Olaparib (LClabs, Woburn, US) in a final concentration of 1 μM. The inhibitory values (IC50) are determined using either the program Symyx Assay Explorer® or Condosseo® from GeneData.

tankyrase 1/2 = test: Cellular inhibition of Tankyrase: increase of Axin2 level in DLD1 cells (Luminex); type: cell-based; conditions: 24 hours, read-out: EC50 tankyrase 1/2 (cell assay)
Experimental: Measurement of Cellular Inhibition of Tankyrase
Since Tankyrases have been described to modulate cellular level of Axin2 (Huang et al., 2009; Nature) the increase of Axin2 level is used as read-out for determination of cellular inhibition of Tankyrases in a Luminex based assay.
Cells of the colon carcinoma cell line DLD1 are plated in 96 well plates with 1.5×10^4 cells per well. Next day, cells are treated with a serial dilution of test compound in seven steps as triplicates with a final DMSO concentration of 0.3%. After 24 hours, cells are lysed in lysis buffer (20 mM Tris/HCl pH 8.0, 150 mM NaCl, 1% NP40, 10% Glycerol) and lysates are cleared by centrifugation through a 96 well filter plate (0.65 μm). Axin2 protein is isolated from cell lysates by incubation with a monoclonal anti-Axin2 antibody (R&D Systems #MAB6078) that is bound to fluorescent carboxybeads. Then, bound Axin2 is specifically detected with a polyclonal anti-Axin2 antibody (Cell Signaling #2151) and an appropriate PE-fluorescent secondary antibody. The amount of isolated Axin2 protein is determined in a Luminex^200 machine (Luminex Corporation) according to the manufacturer's instruction by counting 100 events per well. Inhibition of Tankyrase by test compounds results in higher levels of Axin2 which directly correlates with an increase of detectable fluorescence. As controls cells are treated with solvent alone (neutral control) and with a Tankyrase reference inhibitor IWR-2 (3E-06 M) which refers as control for maximum increase of Axin2. For analysis, the obtained data are normalized against the untreated solvent control and fitted for determination of the EC50 values using the Assay Explorer software (Accelrys).

T1 sequence (Q9H2K2 873-1166): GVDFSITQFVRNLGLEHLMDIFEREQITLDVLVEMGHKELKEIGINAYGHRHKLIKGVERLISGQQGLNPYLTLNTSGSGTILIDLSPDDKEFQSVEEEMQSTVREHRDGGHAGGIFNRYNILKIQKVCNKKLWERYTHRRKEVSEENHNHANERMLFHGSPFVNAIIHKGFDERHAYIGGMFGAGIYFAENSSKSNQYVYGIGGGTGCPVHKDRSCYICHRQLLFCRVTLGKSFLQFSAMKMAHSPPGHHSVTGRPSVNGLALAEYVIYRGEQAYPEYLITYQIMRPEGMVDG
T2 sequence (O95271 1023-1327): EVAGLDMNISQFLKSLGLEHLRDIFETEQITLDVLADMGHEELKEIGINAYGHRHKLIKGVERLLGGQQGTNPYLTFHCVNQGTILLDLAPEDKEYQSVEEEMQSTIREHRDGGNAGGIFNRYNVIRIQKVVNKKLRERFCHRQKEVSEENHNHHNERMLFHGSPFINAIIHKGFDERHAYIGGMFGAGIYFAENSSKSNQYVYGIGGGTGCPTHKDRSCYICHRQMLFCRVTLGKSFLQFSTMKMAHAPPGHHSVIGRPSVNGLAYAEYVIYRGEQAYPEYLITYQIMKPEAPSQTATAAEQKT
T3 sequence (P09874 whole entry): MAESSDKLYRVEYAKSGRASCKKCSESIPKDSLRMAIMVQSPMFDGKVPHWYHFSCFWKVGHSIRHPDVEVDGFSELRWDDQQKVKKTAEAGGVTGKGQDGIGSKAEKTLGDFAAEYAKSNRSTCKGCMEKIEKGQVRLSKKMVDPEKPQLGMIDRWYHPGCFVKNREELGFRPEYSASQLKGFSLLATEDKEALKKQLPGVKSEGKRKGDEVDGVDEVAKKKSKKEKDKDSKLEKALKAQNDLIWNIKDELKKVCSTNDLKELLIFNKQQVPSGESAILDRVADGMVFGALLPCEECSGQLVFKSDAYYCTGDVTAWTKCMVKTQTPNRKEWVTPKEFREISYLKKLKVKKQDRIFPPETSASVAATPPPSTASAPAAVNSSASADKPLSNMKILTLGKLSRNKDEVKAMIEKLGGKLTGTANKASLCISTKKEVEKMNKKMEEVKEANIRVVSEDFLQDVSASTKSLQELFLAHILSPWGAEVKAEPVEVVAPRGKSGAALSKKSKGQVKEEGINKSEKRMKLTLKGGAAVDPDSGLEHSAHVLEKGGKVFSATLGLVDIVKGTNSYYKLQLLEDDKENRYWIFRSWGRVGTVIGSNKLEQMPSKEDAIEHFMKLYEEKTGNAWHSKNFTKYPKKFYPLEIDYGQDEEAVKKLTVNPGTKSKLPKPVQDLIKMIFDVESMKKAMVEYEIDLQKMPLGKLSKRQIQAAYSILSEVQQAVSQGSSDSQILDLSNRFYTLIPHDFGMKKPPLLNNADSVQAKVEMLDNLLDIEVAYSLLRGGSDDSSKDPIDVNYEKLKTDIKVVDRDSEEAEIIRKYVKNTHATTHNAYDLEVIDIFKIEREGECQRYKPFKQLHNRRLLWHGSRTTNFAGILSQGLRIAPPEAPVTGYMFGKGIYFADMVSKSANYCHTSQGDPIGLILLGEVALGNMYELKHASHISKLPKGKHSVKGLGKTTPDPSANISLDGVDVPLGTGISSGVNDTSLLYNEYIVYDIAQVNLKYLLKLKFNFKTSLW

SMILES	IC50 [1]	IC50 [2]	IC50 (His-tagged Parp-1)	EC50 (tankyrase 1/2)
O=c1[nH]c(-c2cccc(Cl)c2)cn2cccc12 [Compound A3, 3-(3-chloro-phenyl)-2H-pyrrolo[1,2-a]pyrazin-1-one]	300 to 3000 nM	300 to 3000 nM	300 to 3000 nM	–
COc1ccc(-c2cn3cccc3c(=O)[nH]2)cc1 [Compound A7, 3-(4-methoxy-phenyl)-2H-pyrrolo[1,2-a]pyrazin-1-one]	300 to 3000 nM	< 300 nM	300 to 3000 nM	3000 to 50000 nM
O=c1[nH]c(-c2ccc(F)cc2)cn2cccc12 [Compound A10, 3-(4-fluoro-phenyl)-2H-pyrrolo[1,2-a]pyrazin-1-one]	300 to 3000 nM	300 to 3000 nM	300 to 3000 nM	–
COc1ccc(-c2cn3cccc3c(=O)[nH]2)cc1OC [Compound A8, 3-(3,4-dimethoxy-phenyl)-2H-pyrrolo[1,2-a]pyrazin-1-one]	3000 to 50000 nM	300 to 3000 nM	3000 to 50000 nM	–
CC(C)(C)c1ccc(-c2cn3nc(C(F)F)cc3c(=O)[nH]2)cc1 [Compound A66, 6-(4-tert-butyl-phenyl)-2-difluoromethyl-5H-pyrazolo[1,5-a]pyrazin-4-one]	300 to 3000 nM	< 300 nM	–	300 to 3000 nM
O=c1[nH]c(-c2ccc(C(F)(F)F)cc2)cn2cccc12 [Compound A13, 3-(4-trifluoromethyl-phenyl)-2H-pyrrolo[1,2-a]pyrazin-1-one]	< 300 nM	300 to 3000 nM	300 to 3000 nM	300 to 3000 nM
O=c1[nH]c(-c2ccc3c(c2)OCO3)cn2cccc12 [Compound A9, 3-benzo[1,3]dioxol-5-yl-2H-pyrrolo[1,2-a]pyrazin-1-one]	300 to 3000 nM	300 to 3000 nM	3000 to 50000 nM	–
Cc1cc2c(=O)[nH]c(-c3ccc(C(C)(C)C)cc3)cn2n1 [Compound A30, 6-(4-tert-butyl-phenyl)-2-methyl-5H-pyrazolo[1,5-a]pyrazin-4-one]	300 to 3000 nM	< 300 nM	–	< 300 nM
CN1CCC(c2ccc(-c3cn4cc(Cl)cc4c(=O)[nH]3)cc2)CC1 [Compound A82, 7-chloro-3-[4-(1-methyl-piperidin-4-yl)-phenyl]-2H-pyrrolo[1,2-a]pyrazin-1-one]	300 to 3000 nM	< 300 nM	–	300 to 3000 nM
Cc1cc2c(=O)[nH]c(-c3ccc(-c4cnn(C)c4)cc3)cn2c1 [Compound A91]	300 to 3000 nM	< 300 nM	–	300 to 3000 nM
Cn1cc(-c2ccc(-c3cn4cc(F)cc4c(=O)[nH]3)cc2)cn1 [Compound A90]	300 to 3000 nM	< 300 nM	–	300 to 3000 nM
COc1cccc(-c2cn3cccc3c(=O)[nH]2)c1 [Compound A4, 3-(3-methoxy-phenyl)-2H-pyrrolo[1,2-a]pyrazin-1-one]	300 to 3000 nM	300 to 3000 nM	300 to 3000 nM	–
O=c1[nH]c(-c2ccc(OCc3ccccc3)cc2)cn2cccc12 [Compound A1, 3-(4-benzyloxy-phenyl)-2H-pyrrolo[1,2-a]pyrazin-1-one]	300 to 3000 nM	< 300 nM	300 to 3000 nM	–
O=c1[nH]c(-c2ccc(N3CCCC3)cc2)cn2nccc12 [Compound A17, 6-(4-pyrrolidin-1-yl-phenyl)-5H-pyrazolo[1,5-a]pyrazin-4-one]	< 300 nM	< 300 nM	–	300 to 3000 nM
O=c1[nH]c(-c2ccc(C3(O)CCNCC3)cc2)cn2cccc12 [Compound A99]	300 to 3000 nM	300 to 3000 nM	–	3000 to 50000 nM
O=c1[nH]c(-c2ccc([N+](=O)[O-])cc2)cn2cccc12 [Compound A6, 3-(4-nitro-phenyl)-2H-pyrrolo[1,2-a]pyrazin-1-one]	< 300 nM	< 300 nM	300 to 3000 nM	–
